Experimental findings from patent publication US9796711B2, “Substituted pyrazolo[3,4-b]pyridin-6-carboxylic acids and method of use” (AbbVie S.àr.l., priority 2015, dated 2017) are described below.

The target in experiment [1] is T1, ΔF508-CFTR (Homo sapiens, UniProt P13569, DEL508-508).
T1 construct: host or cells: CFBE41o-, doxycycline-inducible
The experiment is described as follows: CFTR cell surface levels using HRP-tagged ΔF508-CFTR expressing CFBE cells, in the presence of a co-corrector. Type of experiment: cell-based. An outline of the steps: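 Cells were seeded with 0.5 μg/mL doxycycline and held 68 h at 37 °C. Test compounds plus 3 μM co-corrector (final 0.1% DMSO) were then added for 20 h at 33 °C. Washed cells received HRP substrate, and luminescence was normalized between DMSO and 3 μM co-corrector controls.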

Experiment [2] has as its target T1, ΔF508-CFTR. The experiment is described as follows: CFTR cell surface levels using HRP-tagged ΔF508-CFTR expressing CFBE cells, intrinsic corrector capacity. The format is cell-based. An outline of the steps:
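Here the cells express ΔF508-CFTR with horseradish peroxidase inserted in extracellular loop 4, so only rescued channel at the surface gives luminescent signal. Compounds act on their own, 20 h at the reduced temperature of 33 °C; values are percent activity relative to DMSO and a 3 μM corrector.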

The mark [3] stands for this setting: HRP-tagged ΔF508-CFTR expressing CFBE cells, in the presence of 3 μM co-corrector.
Where [4] appears, read: HRP-tagged ΔF508-CFTR expressing CFBE cells, in the presence of 3 μM co-corrector, read-out: EC50.
Where [5] appears, read: HRP-tagged ΔF508-CFTR expressing CFBE cells, intrinsic corrector capacity (no co-corrector), 33° C., 20 hours.
Where [6] appears, read: HRP-tagged ΔF508-CFTR expressing CFBE cells, intrinsic corrector capacity (no co-corrector), 33° C., 20 hours, read-out: EC50.
Where [7] appears, read: HRP-tagged ΔF508-CFTR CFBE41o- cells, compounds alone (intrinsic corrector capacity), 20 hours at 33° C., positive control 3 μM corrector.
The mark [8] stands for this setting: HRP-tagged ΔF508-CFTR CFBE41o- cells, compounds alone (intrinsic corrector capacity), 20 hours at 33° C., read-out: EC50.

T1 sequence (P13569 with tags, fused parts or gaps DEL508-508): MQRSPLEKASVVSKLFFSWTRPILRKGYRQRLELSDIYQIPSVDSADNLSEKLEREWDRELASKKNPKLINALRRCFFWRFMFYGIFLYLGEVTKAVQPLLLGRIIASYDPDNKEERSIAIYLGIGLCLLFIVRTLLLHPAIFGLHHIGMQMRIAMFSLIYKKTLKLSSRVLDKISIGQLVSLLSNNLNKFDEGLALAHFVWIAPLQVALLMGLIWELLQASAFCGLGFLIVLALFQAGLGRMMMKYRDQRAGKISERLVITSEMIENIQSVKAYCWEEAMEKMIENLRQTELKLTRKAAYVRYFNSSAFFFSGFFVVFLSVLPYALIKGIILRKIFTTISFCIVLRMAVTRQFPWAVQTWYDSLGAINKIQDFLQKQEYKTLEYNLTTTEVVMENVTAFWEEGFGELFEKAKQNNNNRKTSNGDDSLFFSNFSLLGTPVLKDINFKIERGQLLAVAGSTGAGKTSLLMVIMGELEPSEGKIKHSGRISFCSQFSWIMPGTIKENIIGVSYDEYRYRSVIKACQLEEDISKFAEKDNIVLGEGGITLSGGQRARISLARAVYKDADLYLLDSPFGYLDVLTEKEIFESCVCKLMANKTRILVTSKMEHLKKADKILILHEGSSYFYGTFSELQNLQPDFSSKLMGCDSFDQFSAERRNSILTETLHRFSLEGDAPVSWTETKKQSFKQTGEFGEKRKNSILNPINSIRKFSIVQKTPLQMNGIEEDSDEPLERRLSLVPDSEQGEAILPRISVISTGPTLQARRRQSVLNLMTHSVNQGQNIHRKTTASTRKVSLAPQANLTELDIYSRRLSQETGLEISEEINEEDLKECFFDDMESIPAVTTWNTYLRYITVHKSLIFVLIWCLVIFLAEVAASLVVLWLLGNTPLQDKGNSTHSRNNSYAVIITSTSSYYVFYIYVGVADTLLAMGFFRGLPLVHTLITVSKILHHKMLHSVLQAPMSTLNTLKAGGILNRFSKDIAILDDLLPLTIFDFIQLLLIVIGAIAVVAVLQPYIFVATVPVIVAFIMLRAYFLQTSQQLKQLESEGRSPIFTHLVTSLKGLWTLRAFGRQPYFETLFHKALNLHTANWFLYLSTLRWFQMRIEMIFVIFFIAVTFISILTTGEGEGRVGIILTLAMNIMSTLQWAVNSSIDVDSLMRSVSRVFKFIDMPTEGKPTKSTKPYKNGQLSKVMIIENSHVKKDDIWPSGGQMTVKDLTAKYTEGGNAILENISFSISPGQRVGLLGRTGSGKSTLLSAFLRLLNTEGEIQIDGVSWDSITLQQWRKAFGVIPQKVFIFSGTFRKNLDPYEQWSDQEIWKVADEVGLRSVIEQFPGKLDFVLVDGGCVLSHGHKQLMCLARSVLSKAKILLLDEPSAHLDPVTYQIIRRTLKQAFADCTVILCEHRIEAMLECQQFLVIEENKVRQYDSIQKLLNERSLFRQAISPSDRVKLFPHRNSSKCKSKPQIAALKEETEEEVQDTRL

Broadly, the EC50 is the concentration needed to bring the measured effect to its halfway point. Consider `CCOCCN1CCN(c2cc(C(=O)O)nc3c2c(C2CCC2)nn3-c2ccccc2)CC1` [compound 566, 3-cyclobutyl-4-[4-(2-ethoxyethyl)piperazin-1-yl]-1-phenyl-1H-pyrazolo[3,4-b]pyridine-6-carboxylic acid], for which the entries for the “% Activation” value in experiment [1] (setting [3]) and in experiment [2] (setting [5]) were 365.3% and 150.5%, respectively. Further, the EC50 in experiment [1] (setting [4]) is 407 nM; in experiment [2] (setting [6]) it was 388 nM.

Turning to `CN(CCCN(C)C1CCCCC1)c1cc(C(=O)O)nc2c1c(C1CCC1)nn2-c1ccccc1` [compound 690, 3-cyclobutyl-4-[{3-[cyclohexyl(methyl)amino]propyl}(methyl)amino]-1-phenyl-1H-pyrazolo[3,4-b]pyridine-6-carboxylic acid], the “% Activation” value in experiment [1] (setting [3]) came to 318.25%; in experiment [2] (setting [5]), 136.1%. The EC50 in experiment [1] (setting [4]) was 2760 nM; in experiment [2] (setting [6]), 1670 nM.

Regarding `COC1CN(c2cc(C(=O)O)nc3c2c(C(C)C)nn3-c2cccc(C)c2)C1` [compound 212, 4-(3-methoxyazetidin-1-yl)-1-(3-methylphenyl)-3-(propan-2-yl)-1H-pyrazolo[3,4-b]pyridine-6-carboxylic acid], the “% Activation” value worked out at 386.9% in experiment [1] (setting [3]) and 139.7% in experiment [2] (setting [7]). Also, the EC50 in experiment [1] (setting [4]) was determined as 1490 nM; in experiment [2] (setting [8]), 2640 nM.

For `Cc1nn(-c2ccccc2)c2nc(C(=O)O)cc(OCC3(F)CCN(C)C3)c12` (centres unmarked) [compound 378, 4-[(3-fluoro-1-methylpyrrolidin-3-yl)methoxy]-3-methyl-1-phenyl-1H-pyrazolo[3,4-b]pyridine-6-carboxylic acid], the results for the “% Activation” value in experiment [1] (setting [3]) and in experiment [2] (setting [7]) were 140.5% and 14.56%, respectively. Besides, the 50% effective concentration (EC50) stood at 3340 nM in experiment [1] (setting [4]) and 5010 nM in experiment [2] (setting [8]).

As to `CC(C)c1nn(-c2cccc(N(C)C)c2)c2nc(C(=O)O)cc(-c3ccc(N4CCC(C#N)CC4)cc3)c12` [compound 176], the “% Activation” value in experiment [1] (setting [3]) is on record as 619.28%; in experiment [2] (setting [7]), 382.28%. Further, the results for the EC50 in experiment [1] (setting [4]) and in experiment [2] (setting [8]) were 448 nM and 528 nM, respectively.

As to `COCC1CCN(c2cc(C(=O)O)nc3c2c(C2CCC2)nn3-c2ccccc2)CC1` [compound 405, 3-cyclobutyl-4-[4-(methoxymethyl)piperidin-1-yl]-1-phenyl-1H-pyrazolo[3,4-b]pyridine-6-carboxylic acid], the entries for the “% Activation” value in experiment [1] (setting [3]) and in experiment [2] (setting [5]) were 512.4% and 298.75%, respectively. The EC50 in experiment [1] (setting [4]) amounted to 226 nM; in experiment [2] (setting [6]), 347 nM.

With `O=C(O)c1cc(OCC(F)(F)F)c2c(C3CCC3)nn(-c3ccccc3)c2n1` [compound 613, 3-cyclobutyl-1-phenyl-4-(2,2,2-trifluoroethoxy)-1H-pyrazolo[3,4-b]pyridine-6-carboxylic acid], the “% Activation” value in experiment [1] (setting [3]) was 292%; in experiment [2] (setting [5]), 99.78%. The values for the EC50 in experiment [1] (setting [4]) and in experiment [2] (setting [6]) were 739 nM and 1600 nM, respectively.

On to `O=C(O)c1cc(N2CCC[C@@H](CO)C2)c2c(C3CCC3)nn(-c3ccccc3)c2n1` [compound 544, 3-cyclobutyl-4-[(3R)-3-(hydroxymethyl)piperidin-1-yl]-1-phenyl-1H-pyrazolo[3,4-b]pyridine-6-carboxylic acid], for which the figures for the EC50 in experiment [1] and in experiment [2] were 457 nM and 803 nM, respectively. The entries for the “% Activation” value in experiment [1] (setting [3]) and in experiment [2] (setting [5]) were 273% and 129.55%, respectively.

Turning to `Cc1nn(-c2ccccc2)c2nc(C(=O)O)cc(OC[C@H](F)C3CCOCC3)c12` [compound 336, 4-[(2R)-2-fluoro-2-(oxan-4-yl)ethoxy]-3-methyl-1-phenyl-1H-pyrazolo[3,4-b]pyridine-6-carboxylic acid], the “% Activation” value in experiment [1] (setting [3]) was 297.8%; in experiment [2] (setting [7]), 118.2%. In addition, the EC50 was 1320 nM in experiment [1] (setting [4]) and 1370 nM in experiment [2] (setting [8]).

On to `CC(C)c1nn(C2CCCCC2)c2nc(C(=O)O)cc(-c3ccc(N4CCC(F)(F)C4)nc3)c12` [compound 181, 1-cyclohexyl-4-[6-(3,3-difluoropyrrolidin-1-yl)pyridin-3-yl]-3-(propan-2-yl)-1H-pyrazolo[3,4-b]pyridine-6-carboxylic acid], for which the entries for the “% Activation” value in experiment [1] (setting [3]) and in experiment [2] (setting [7]) were 397.95% and 149.2%, respectively. The figures for the EC50 in experiment [1] (setting [4]) and in experiment [2] (setting [8]) were 1060 nM and 1220 nM, respectively.

For `Cc1nn(-c2ccccc2)c2nc(C(=O)O)cc(N3CC4(CCCOC4)C3)c12` [compound 308, 3-methyl-4-(6-oxa-2-azaspiro[3.5]nonan-2-yl)-1-phenyl-1H-pyrazolo[3,4-b]pyridine-6-carboxylic acid], the figures for the “% Activation” value in experiment [1] (setting [3]) and in experiment [2] (setting [7]) were 221.85% and 59.78%, respectively. Besides, the half-maximal effective concentration (EC50) in experiment [1] (setting [4]) and in experiment [2] (setting [8]) was 2510 nM each time.

As to `CC(C)c1nn(-c2ccnc(N3CCCC3)c2)c2nc(C(=O)O)cc(-c3ccc(N4CCC(C#N)CC4)nc3)c12` [compound 369, 4-[6-(4-cyanopiperidin-1-yl)pyridin-3-yl]-3-(propan-2-yl)-1-[2-(pyrrolidin-1-yl)pyridin-4-yl]-1H-pyrazolo[3,4-b]pyridine-6-carboxylic acid], the “% Activation” value is 389.2% in experiment [1] (setting [3]) and 251.6% in experiment [2] (setting [7]). Also, the EC50 in experiment [1] (setting [4]) worked out at 471 nM; in experiment [2] (setting [8]) it was 843 nM.

For `Cc1nn(-c2ccccc2)c2nc(C(=O)O)cc(-c3ccc(N4CCOCC4)c(Br)c3)c12` [compound 66, 4-[3-bromo-4-(morpholin-4-yl)phenyl]-3-methyl-1-phenyl-1H-pyrazolo[3,4-b]pyridine-6-carboxylic acid], the “% Activation” value in experiment [1] (setting [3]) came out at 131.3%; in experiment [2] (setting [7]) it was 13.06%. Moreover, the EC50 in experiment [1] (setting [4]) and in experiment [2] (setting [8]) was more than 10000 nM each time.

Consider `O=C(O)c1cc(OC(CN2CCOCC2)CN2CCOCC2)c2c(C3CCC3)nn(-c3ccccc3)c2n1` [compound 641, 4-{[1,3-bis(morpholin-4-yl)propan-2-yl]oxy}-3-cyclobutyl-1-phenyl-1H-pyrazolo[3,4-b]pyridine-6-carboxylic acid], for which the figures for the “% Activation” value in experiment [1] (setting [3]) and in experiment [2] (setting [5]) were 239.75% and 65.07%, respectively. The EC50 turned out to be 2270 nM in experiment [1] (setting [4]) and 3330 nM in experiment [2] (setting [6]).

Take `O=C(O)c1cc(OCC2CCCC2(F)F)c2c(C3CCC3)nn(-c3ccccc3)c2n1` (centres unmarked) [compound 486, 3-cyclobutyl-4-[(2,2-difluorocyclopentyl)methoxy]-1-phenyl-1H-pyrazolo[3,4-b]pyridine-6-carboxylic acid]: the “% Activation” value in experiment [1] (setting [3]) came to 299%; in experiment [2] (setting [5]), 127%. Further, the EC50 in experiment [1] (setting [4]) came out at 335 nM; in experiment [2] (setting [6]), 603 nM.

`CC(C)c1nn(-c2cccc(N3CC(C)(C)C3)c2)c2nc(C(=O)O)cc(-c3ccc(N4CCOCC4)cc3)c12` [compound 160, 1-[3-(3,3-dimethylazetidin-1-yl)phenyl]-4-[4-(morpholin-4-yl)phenyl]-3-(propan-2-yl)-1H-pyrazolo[3,4-b]pyridine-6-carboxylic acid]: the “% Activation” value in experiment [1] (setting [3]) came out at 544.87%; in experiment [2] (setting [7]), 318.83%. Moreover, the results for the EC50 in experiment [1] (setting [4]) and in experiment [2] (setting [8]) were 329 nM and 447 nM, respectively.

With `O=C(O)c1cc(N2CCC(N3CCC(C(F)(F)F)C3)CC2)c2c(C3CCC3)nn(-c3ccc(F)cc3)c2n1` (centres unmarked) [compound 869], the figures for the “% Activation” value in experiment [1] (setting [3]) and in experiment [2] (setting [5]) were 513.05% and 299.1%, respectively. The EC50 amounted to 37.7 nM in experiment [1] (setting [4]) and 113 nM in experiment [2] (setting [6]).
